Data on 29 molecules can be found in patent publication US12195457B2, “Aromatic ring derivative as immunoregulation and preparation method and application of aromatic ring derivative” (SHANGHAI JEMINCARE PHARMACEUTICALS CO., LTD, priority 2018, dated 2025).

The target of data set [1] is T1, S1P1 (Homo sapiens, UniProt P21453).
T1 construct: host or cells: CHO-K1
As to the kind of experiment: S1P1 mediated β-arrestin reporter activation (PathHunter CHO-K1 EDG1 β-Arrestin Cell Line). The note with it: 90 minutes incubation at 37° C. It counts as cell-based. As to the method: The cell line used in the test was PathHunter® CHO-K1 EDG1 β-Arrestin Cell Line, supplier: DiscoverX, catalog number: 93-0207C2. According to the supplier's instructions, the cells were added to the test plate according to 25 μL cell suspension containing 5000 cells per well, and cultured at 37° C. for 20 hours. Compounds of 10 concentrations diluted 4 times were added to the cell culture medium and incubated at 37° C. for 90 minutes. The detection solution was prepared, 12 μL per well, incubated at room temperature for 60 minutes, the plate was read on an Envision plate reader. The data was analyzed by nonlinear regression to determine the EC50 of β-arrestin activity.

The target of data set [2] is T1, S1P1. Put plainly: S1P1 mediated inhibition of forskolin induced cAMP (PathHunter CHO-K1 EDG1 cells). In kind it is cell-based. Here is the method: The cell line used in the test was PathHunter® CHO-K1 EDG1 β-Arrestin Cell Line, supplier: DiscoverX, catalog number: 93-0207C2. The inhibitory effect of compounds on S1P1 mediated forskolin induced cAMP activity was evaluated.
Different concentrations of compounds and a final concentration of 0.6 μM forskolin were added to the test plate wells for each test, and the mixture was centrifuged at 1000 rpm for 10 seconds. A frozen cell was taken, washed twice with HBSS buffer and resuspended. 5000 cells were added to test plates per well, the mixture was shaked for 20 seconds, centrifuged at 1000 rpm for 10 seconds, and incubated at room temperature for 60 minutes. Anti-cAMP-Eu^2+-Cryptate and cAMP-d2 were added. Then the mixture was shaked for 20 seconds, centrifuged at 1000 rpm for 10 seconds, incubated at room temperature for 60 minutes, and the plate was read on an Envision plate reader. The data was analyzed by nonlinear regression to determine the EC50 of the compounds for the inhibition of cAMP induced by forskolin.

Data set [3] addresses T1, S1P1. Put plainly: S1P1 receptor internalization (FACS, CHO-K1 EDG1 cells). The note with it: 2 hours incubation; read-out: S1P1 internalized EC50. It counts as cell-based. As to the method:
1. CHO-K1 DEG1 cells (PathHunter® CHO-K1 EDG1 β-Arrestin Cell Line, supplier: DiscoverX, catalog number: 93-0207C2), and culture medium was removed (F12 medium 1000 mL, 10% FBS, 800 μg/mL G418, 300 μg/mL Hygromycin, 1% Glutamax and 1% Pen/Strep), the cells were washed with 2 mL of DPBS, 5 mL of cell dispersion (Invitrogen-13151014) was added to disperse the cells, the cells were incubated in an incubator at 37° C. for 1-2 minutes. The flask was gently patted to make the cells fall off. 5 mL of growth medium was added, and pipette was gently blown to suspend the cells. Cell counting was performed using Vi-Cell. The mixture was centrifuged at 1000 rpm for 5 minutes at room temperature, the supernatant was gently poured out, and the cells in FACS buffer were resuspended to a concentration of 1.5e6 cells per mL. 2. S1P and compounds were diluted with DMSO in a 384-well plate, and a volume of 500 nL was transferred to a 96 V-well plate (Cat #Axygen-WIPP02280). 3. 50 μL of cells were added to a 96-well plate; 4. The 96-well plate was incubated in a 37° C. 5% CO2 incubator for 2 hours. 5. The cells were centrifuged at room temperature at 1500 rpm for 5 minutes to remove the supernatant. 6. 100 μL of FACS buffer was added to the resuspended cells, centrifuged at 1500 rpm for 5 minutes, and the supernatant was removed. 7. The anti-human S1P1/EDG-1-Alex647 (R&D-FAB1864R) and anti-IgG2B-Alex647 (R&D-IC0041R) antibodies were diluted 200 times with FACS buffer. 8. 50 μL of antibody was added to 96 wells, and the plates were transferred to 4° C. for 30 minutes. 9. The cells were centrifuged at room temperature at 1500 rpm for 5 minutes to remove the supernatant. 10. 100 μL of FACS buffer was added to the resuspended cells. 11. The cells were centrifuged at 4° C. at 1500 rpm for 5 minutes to remove the supernatant. 12. After washing, the cells were resuspended in 50 μL of FACS buffer per well. 13. Cell samples were read using iQue Screener PLUS-VBR.

The nature of data set [4]: In vivo pharmacokinetics in rats, intravenous injection and oral administration. Details: species or system Sprague Dawley rats. The note with it: rat; for AUC(0-inf) / clearance / half-life / Cmax: male, Sprague-Dawley, plasma. Here is the method: In this experimental embodiment, in vivo pharmacokinetic evaluation was performed in rats by intravenous injection and oral administration.
Experimental methods and conditions: male Sprague Dawley rats were given the test compounds 1 mg/kg (solvent 5% DMSO/15% Solutol/80% Saline) by intravenous injection and 1 mg/kg (solvent 0.5% MC) by oral gavage respectively. 5 min, 15 min, 30 min, 1 hr, 2 hr, 4 hr, 6 hr, 8 hr, 24 hr after administration, blood was collected from submandibular vein, each sample was collected about 0.20 mL, and heparin sodium was used for anti coagulation. After collection, the sample was placed on ice, and the blood was centrifuged to be measured within one hour. Blood drug concentration in plasma was detected by liquid chromatography tandem mass spectrometry (LC/MS/MS), and the pharmacokinetic parameters were calculated by Phoenix WinNonlin software.

[5] abbreviates: intravenous administration 1 mg/kg.

T1 sequence (P21453 whole entry): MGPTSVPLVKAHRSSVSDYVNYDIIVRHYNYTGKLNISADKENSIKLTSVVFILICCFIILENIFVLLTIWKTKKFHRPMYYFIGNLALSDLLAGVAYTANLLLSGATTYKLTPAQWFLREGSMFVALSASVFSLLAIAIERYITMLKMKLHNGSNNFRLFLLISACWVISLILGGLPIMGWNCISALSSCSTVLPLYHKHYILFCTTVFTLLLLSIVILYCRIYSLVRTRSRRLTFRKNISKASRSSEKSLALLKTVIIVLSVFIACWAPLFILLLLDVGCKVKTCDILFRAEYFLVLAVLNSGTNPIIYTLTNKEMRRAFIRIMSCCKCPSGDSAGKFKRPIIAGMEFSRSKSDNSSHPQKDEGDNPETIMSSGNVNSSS

Take `O=C(O)CCc1cc2cc(OCc3cnc(C4CCCC4)c(C(F)(F)F)c3)ccc2[nH]1` [Compound 29]: the response in data set [1] was half-maximal at 2.15 nM (EC50).

`O=C(O)CCc1[nH]c2ccc(OCc3ccc(OC4CCCC4)c(C(F)(F)F)c3)cc2c1Cl` [Compound 24]: the EC50 (usually the midpoint of the concentration-response curve) in data set [1] stood at 1.73 nM; in data set [2], 0.0072 nM.

As to `O=C(O)CCc1[nH]c2ccc(OCc3ccc(C4CCOCC4)c(C(F)(F)F)c3)cc2c1Cl` [Compound 27], the EC50 in data set [1] came to 1.03 nM; in data set [2] it was 0.0021 nM.

As to `O=C(O)CCc1[nH]c2ccc(OCc3ccc(C4CCOCC4)c(C(F)(F)F)c3)cc2c1F` [Compound 36], the EC50 in data set [1] came to 0.85 nM; in data set [2], 0.3 nM.

Turning to `Cc1c(CCC(=O)O)[nH]c2ccc(OCc3cnc(C4CCCC4)c(C(F)(F)F)c3)cc12` [Compound 40], it took 1.18 nM to reach a half-maximal effect in data set [1] (EC50).

On to `O=C(O)CCc1cc2cc(OCc3ccc(C4CCCC4)c(C(F)(F)F)c3)ccc2[nH]1` [Compound 1], for which the EC50 in data set [1] was 0.95 nM; in data set [2], under 0.05 nM.

As for `O=C(O)CCc1[nH]c2ccc(OCc3ccc(C4=CCCC4)c(C(F)(F)F)c3)cc2c1Cl` [Compound 21], the EC50 in data set [1] was 2.26 nM; in data set [2] it was 0.035 nM.

As to `O=C(O)CCc1[nH]c2ccc(OCc3cnc(C4CCCC4)c(C(F)(F)F)c3)cc2c1F` [Compound 30], the values for the EC50 in data set [1] and in data set [2] were 0.62 nM and 0.15 nM, respectively.

On to `O=C(O)C[C@H]1CCc2c1[nH]c1ccc(OCc3ccc(C4CCCC4)c(C(F)(F)F)c3)cc21` [APD334, reference compound], for which the EC50 in data set [3] was determined as 6.26 nM. In addition, in data set [4] (setting [5]), the AUC(0-inf) – broadly, total exposure, with the tail of the curve extrapolated – was found to be 9410 ng·h/mL; the clearance is 1.83 mL/min/kg; the half-life (usually how long it takes for the measured level to halve) was 5.2 h. Besides, in data set [4] (oral administration 1 mg/kg), the AUC(0-inf) stood at 4440 ng·h/mL, the Cmax (usually the maximum level reached in the sampled fluid or tissue) turned out to be 341 ng/mL, the half-life is 5.5 h and the F is 46.3%. The molecule further returned an EC50 in data set [2] of 2.07 nM.

`O=C(O)CCc1[nH]c2ccc(OCc3ccc(C4CCOC4)c(C(F)(F)F)c3)cc2c1Cl` (centres unmarked) [Compound 26]: the values for the EC50 in data set [1] and in data set [2] were 1.11 nM and 0.0041 nM, respectively.

Take `CCc1c(CCC(=O)O)[nH]c2ccc(OCc3ccc(C4CCCC4)c(C(F)(F)F)c3)cc12` [Compound 2]: the EC50 in data set [3] is 0.32 nM; in data set [1], 1.62 nM; in data set [2], 0.07 nM.

Regarding `O=C(O)CCc1[nH]c2ccc(OCc3ccc(C4CCCCC4)c(C(F)(F)F)c3)cc2c1Cl` [Compound 23], the EC50 is 3.82 nM in data set [1] and 0.032 nM in data set [2].

In turn, `O=C(O)CCc1nc2cc(OCc3ccc(C4CCCC4)c(C(F)(F)F)c3)ccc2[nH]1` [Compound 6] registered an EC50 in data set [2] of 0.16 nM.

Consider `O=C(O)CCc1[nH]c2ccc(OCc3ccc(C4CCOC4)c(C(F)(F)F)c3)cc2c1F` (centres unmarked) [Compound 33], for which the EC50 in data set [1] was 1.1 nM; in data set [2], 0.057 nM.

For the molecule `O=C(O)CCc1cc2cc(OCc3ccc(OC4CCCC4)c(C(F)(F)F)c3)ccc2[nH]1` [Compound 37], the EC50 in data set [1] stood at 1.72 nM; in data set [2] it was 0.2 nM.

On to `O=C(O)CCc1[nH]c2ccc(OCc3ccc(C4CCC4)c(C(F)(F)F)c3)cc2c1Cl` [Compound 22], for which the values for the EC50 in data set [1] and in data set [2] were 1.65 nM and 0.11 nM, respectively.

As for `O=C(O)CCc1[nH]c2ccc(OCc3ccc(C4CCCC4)c(C(F)(F)F)c3)cc2c1F` [Compound 14], the EC50 in data set [3] worked out at 0.14 nM. For the same molecule, in data set [4] (setting [5]), the AUC(0-inf) turned out to be 10800 ng·h/mL, the clearance was 1.55 mL/min/kg and the half-life was 4.1 h. Also, in data set [4] (oral administration 1 mg/kg), the AUC(0-inf) was 2340 ng·h/mL, the peak level (Cmax) was 258 ng/mL, the half-life was 4 h and the F was 21.3%. Besides, the midpoint of the response in data set [1], the EC50, lay at 1.86 nM. The 50% effective concentration (EC50) in data set [2] turned out to be 0.07 nM.

With `N#Cc1c(CCC(=O)O)[nH]c2ccc(OCc3ccc(C4CCCC4)c(C(F)(F)F)c3)cc12` [Compound 17], the EC50 in data set [1] was 1.78 nM; in data set [2], 0.21 nM.

As to `O=C(O)CCc1[nH]c2ccc(OCc3cnc(C4CCCC4)c(C(F)(F)F)c3)cc2c1Cl` [Compound 25], the figures for the EC50 in data set [1] and in data set [2] were 1.23 nM and 0.0017 nM, respectively.

In data set [1], `Cc1c(CCC(=O)O)[nH]c2ccc(OCc3ccc(OC4CCCC4)c(C(F)(F)F)c3)cc12` [Compound 38] gave an EC50 of 1.11 nM.

As for `O=C(O)CCc1[nH]c2ccc(OCc3ccc(OC4CCCC4)c(C(F)(F)F)c3)cc2c1F` [Compound 39], the EC50 in data set [1] came to 0.76 nM; in data set [2], 0.027 nM.

On to `O=C(O)CCc1cc2cc(OCc3ccc(C4CCCC4)c(C(F)(F)F)c3)c(F)cc2[nH]1` [Compound 18], for which the EC50 was found to be 0.69 nM in data set [3], 1.1 nM in data set [1] and 0.08 nM in data set [2].

For the molecule `O=C(O)CCc1cc2cc(OCc3ccc(C4CCOC4)c(C(F)(F)F)c3)ccc2[nH]1` (centres unmarked) [Compound 31], the 50% effective concentration (EC50) in data set [1] was 2.63 nM; in data set [2], 0.18 nM.

The molecule `O=C(O)CCn1cnc2cc(OCc3ccc(C4CCCC4)c(C(F)(F)F)c3)ccc21` [Compound 4] had an EC50 in data set [2] of 0.5 nM.

Regarding `Cc1c(CCC(=O)O)[nH]c2ccc(OCc3ccc(C4CCOC4)c(C(F)(F)F)c3)cc12` (centres unmarked) [Compound 32], the EC50 in data set [1] was 1.47 nM; in data set [2], 0.56 nM.

`O=C(O)CCc1cc2cc(OCc3ccc(N4CCCC4)c(C(F)(F)F)c3)ccc2[nH]1` [Compound 28] gave an EC50 in data set [1] of 2.08 nM.

In the case of `Cc1c(CCC(=O)O)[nH]c2ccc(OCc3ccc(C4CCOCC4)c(C(F)(F)F)c3)cc12` [Compound 35], the values for the EC50 in data set [1] and in data set [2] were 0.88 nM and 0.34 nM, respectively.

On to `O=C(O)CCn1ccc2cc(OCc3ccc(C4CCCC4)c(C(F)(F)F)c3)ccc21` [Compound 12], for which the EC50 in data set [1] was 1.96 nM; in data set [2], 0.65 nM.

In data set [1], `O=C(O)CCc1cc2cc(OCc3ccc(C4CCOCC4)c(C(F)(F)F)c3)ccc2[nH]1` [Compound 34] returned an EC50 of 5.35 nM.
